Reference: patent US20250171511A1, “ANTIVIRAL PEPTIDES AND METHODS OF USE THEREOF” (Versitech Limited, priority 2021, published 2025)
Where no end group is shown, it is not given here. 4MPA = not defined here

Test system: SARS-CoV-2 Delta variant
Format: in vivo, hamster
Conditions: 6 h exposure, 4 hamsters

GAICHPVFCPRRYKQIGTCGLPGTKCCKKP-4MPA (cysteine pairing not given here; reading uncertain; also: printed as GAICHPVFCPRRYKQIGTCGLPGTKCCKKP-4MPA) [Peptide 4H30]
transmission to naïve contact hamsters: 25%
